Results on three substances are retold here after US20250135016A1, “MOLECULAR LOGIC GATES FOR CONTROLLED MATERIAL DEGRADATION” (University of Washington, priority 2016, published 2025).

How the values of series [1] were obtained: Azide functionalized glass slides were synthesized as reported in previous works. […] PEG3500-diazide (37.5 μL, 40 mM) was then added, and the resulting solution was rapidly mixed, centrifuged, and then pipetted (25 μL) onto the azide functionalized glass slide. The gels were allowed to gel to completion for 1 hr, then covered with a RainX treated glass slide, and PBS (1×) was added to swell and rinse the gel overnight at room temperature, protected from light. The following morning, two of the gels (gel 3 and 4) was exposed to 365 nm light at 20 mW/cm^2 for 10 minutes with a hatched square (100 μm) chrome photomask. Following the light treatment, gel 3 was returned to PBS (1×) and protected from light. Gels 2 and 4 were placed in a solution of Dithiothreitol (DTT, 1 mM) for 4 hours. Gels 2 and 4 were then transferred to PBS (1×) and protected from light for 30 mins. Gel 1 remained in PBS and protected from light the entire time. The resulting fluorescence of these gels were imaged using a confocal scanning microscope at 488 nm.

The nature of series [2]: In situ oscillatory rheology of hydrogel formation with pretreated E∧P crosslinker. Type of series: physicochemical. As for the experimental part:
Reaction products were characterized using matrix-assisted laser desorption/ionization time-of-flight mass spectrometry (MALDI-TOF). […] To further investigate, the enzyme AND photo linker (E∧P) was pretreated with different combinations of enzyme and light, added to a stoichiometrically defined amount of PEG-tetraBCN, and characterized by in situ oscillatory rheology to monitor evolution of material properties.
Oscillatory rheology was performed on an Anton Paar MCR301 rheometer equipped with a cone and plate geometry (25 mm diameter, 1° cone) at 25° C. and 25 Hz with a 1% strain. A solution of PEG-tetraBCN (3 mM, Method S22) and the E∧P crosslinker (6 mM, Method S12) in MMP buffer was reacted in situ, while G′ and G″ were measured as a function of time over the course of two hours. Peptide crosslinkers were pretreated with MMP and/or light as described in Method S24 in experimental triplicate. Hydrogels with similar stiffnesses formed when the E∧P crosslinker was untreated (G′=1660±170), exposed to just light (G′=1580±130), or exposed to just enzyme (G′=1540±110).

The nature of series [3]: Multi-logic hydrogel treatment and confocal microscopy. Type of series: physicochemical. The settings on record: three-region gel. As for the experimental part: Hydrogels were formed sandwiched between an azide-functional glass slide and a Rain-X®-treated glass slide separated by two 0.005″ thick silicone spacers (McMaster-Carr). A precursor solution containing PEG-tetraBCN-FAM (Method S22, 2 mM) and the P crosslinker (Method S7, 4 mM) was injected between the silicone spacers (0.005 inches) and reacted for one hour. Subsequently, a precursor solution of PEG-tetraBCN-Cyanine5 (Method S22, 2 mM) and the R∨P crosslinker (Method S10, 4 mM) was injected between the FAM functionalized region and a silicone spacer and reacted for one hour. This was repeated on the other side of the FAM functionalized region with PEG-tetraBCN-AF568 (Method S22, 2 mM) and R∧P crosslinker (Method S13, 4 mM). Hydrogels were equilibrated and stored in PBS. […]
Hydrogels were imaged using fluorescent confocal microscopy. Three channels—one for each fluorophore—were simultaneously monitored. For visualization, fluorescence corresponding to AF568 (excitation 578 nm, emission 594-627 nm), FAM (excitation 515 nm, emission 520-569 nm), and Cyanine5 (excitation 646 nm, emission 663-675 nm) were false colored as red, green, and blue, respectively.

Series [4] deals with hS5 bone marrow-derived stromal cells. The series can be described thus: Hydrogel-encapsulated cell release studies. The class given is cell-based, human. As for the experimental part: Four human bone marrow-derived stromal cell lines [hS5], including one non-fluorescent control and three each stably transfected to express a single fluorescent protein [mCherry, green fluorescent protein (GFP), or blue fluorescent protein (BFP)], were cultured at 37° C. in Roswell Park Memorial Institute medium 1640 (RPMI-1640, Corning) supplemented with 10% FBS and 1% PS.
Hydrogels were formed sandwiched between an azide-functional glass slide and a Rain-X®-treated glass slide separated by two 0.005″ thick silicone spacers (McMaster-Carr). A precursor solution containing PEG-tetraBCN (Method S22, 2 mM), the P crosslinker (Method S7, 4 mM), and hS5-GFP^+ (40×10^6 cells mL^−1) was injected between the silicone spacers and reacted for one hour. Subsequently, a precursor solution of PEG-tetraBCN (2 mM), the R∨P crosslinker (Method S10, 4 mM), and hS5-BFP^+ (40×10^6 cells mL^−1) was injected between the hS5-GFP^+ encapsulated region and a silicone spacer. […]
Following each degradative step, cells that remained encapsulated in the intact gel were imaged using fluorescent confocal microscopy. Three channels—one for each fluorescent protein—were simultaneously monitored. For visualization, fluorescence corresponding to mCherry (excitation 587 nm, emission 626-703 nm), GFP (excitation 489 nm, emission 499-570 nm), and BFP (excitation 405 nm, emission 413-494 nm) were false colored as red, green, and blue, respectively. […]
Gels were degraded and the viability of the released cells was assessed. […]
Cells released from the gels and stained with the Live/Dead® assay were imaged on a Nikon Eclipse TE2000-U microscope using filter cubes corresponding to both live (excitation 480/40 nm filter, emission 535/50 nm filter) and dead (excitation 560/20 nm filter, emission 630/60 nm filter) staining. Viability was determined for each treatment by standard image analysis. […]

For series [5] the following is noted: all eight input combinations of reductant, MMP enzyme and light; endpoint supernatant fluorescence.

“And” between values parts separate entries of the source, which are not always exact repeats. Equal entries are not always repeated. Where two headings read alike, the source gives them in different places.

As for “FAM-GRCG-PL-GCGRK(CO(CH2)3N3)—NH2 [FAM-Photolabile-AND-Reducible Pendant]”, the “Gel fluorescence (FAM release)” value was “no visible loss in fluorescence” in series [1] (Gel 1, control, PBS only); “no visible loss in fluorescence” in series [1] (Gel 2, DTT only (1 mM, 4 hours)); “no visible loss in fluorescence” in series [1] (Gel 3, photomasked light only (365 nm, 20 mW/cm^2, 10 minutes)); “release in only the exposed areas” in series [1] (Gel 4, photomasked light and DTT).
With “HCC(CH2)2CO-RGK(CO(CH2)3N3)GPQGIWGQGK(oNB-N3)RK(CO(CH2)3N3)—NH2 [E∧P]”, the “Final storage modulus G′” value is 200±30 Pa in series [2] (E∧P linker pretreated with both enzyme and light, did not form a gel); 1580±130 Pa and 1540±110 Pa in series [2] (E∧P linker pretreated with enzyme (MMP) only); 1540±110 Pa and 1580±130 Pa in series [2] (E∧P linker pretreated with light only); 1660±170 Pa in series [2] (E∧P linker untreated, reacted with PEG-tetraBCN). Moreover, the “Final loss modulus G″” value in series [2] (all samples) is recorded as approximately 50 Pa.
Take N3-oNB-RGGRK(N3)—NH2 [P]: the “Response to subsequent reducing treatment” value in series [3] (BME 0.25 mM, 45 minutes, after masked light) is reported as “fully intact”; in series [4] (cell-laden tri-color gel, BME 0.25 mM, 37° C., 45 minutes) it was “fully intact”. Also, the “Response to masked UV light” value in series [3] (λ=365 nm, 10 minute exposure, slitted photomask) was “degradation”; in series [4] (cell-laden tri-color gel, λ=365 nm, 10 minute exposure, photomask), “degradation”. For the same substance, in series [4] (R gels BME 0.25 mM 45 minutes, P gels UV 10 minutes, E gels MMP-8 0.20 nM 60 minutes), the “Gel degradation for viability studies” value is given as “complete hydrogel degradation”. Moreover, the Hydrogel degradation response entry in series [5] is “degrading only when the programmed cue was present”.
